Assay results taken from patent US20210068400A1, “COMPOSITIONS CONTAINING COMBINATIONS OF NITROGEN-FIXING BACTERIA AND ADDITIONAL AGENTS AND THEIR USE IN FIXING NITROGEN IN PLANT SPECIES” (GRACE BREEDING NITROGEN FIXATION TECHNOLOGIES LTD., priority 2018, published 2021).
Several values for one entry are separate records, joined by “and”; a condition that tells them apart may be missing. Equal values may be shown once.

What was measured:
maize plants [1] = assay: Maize field trial 3, growth parameters (Example 3); format: in vivo, maize (Zea mays); conditions: 3 months after sowing
Experimental: In some of the treatments (as explained hereinbelow), some or all of the active substances were added in the form of granules to the furrow in which the plants had been seeded. The granules were prepared by soaking 1 kg of Perlite granules (having a mean diameter greater than 2 mm) in the following solution: • 50 ml of the concentrated activating agent emulsion (as described above). • 930 ml water. • 10 ml Rhizobium leguminosarum biovar viceae (Cell-Tech™ granular; Monsanto Company) (Granule-R). or Bacillus subtilis (Granule-B) • 10 ml Calirus. • 1000 ml total
This trial was sown during the Israeli growing season of 2018 using the pioneer maize silage variety number W86. The field was washed from possible nitrogen using sprinklers irrigation. The combination treatments administered to the plants which are of relevance for the present study were: • A. Positive Control—full commercial nitrogen. The plants were treated with 30 units of nitrogen per 1000 m^2 by means of applying to this area 60 kg urea containing 46% urea. • B. Negative Control—no added nitrogen. • C. Rhizobium leguminosarum biovar viceae, 3% (containing 10^9 organisms) was added to the activating agent emulsion described in ‘general methods’ hereinabove, to which Calirus (1%) was also added. Perlite granules were soaked with this mixture as described hereinabove. The granules were added to the sowing trench at a density of 2 Kg granules per 1000m^2. • D. As for treatment C, but with the granule quantity adjusted to 1 Kg granules per 1000 m^2. • E. As for treatment C, but with the granule quantity adjusted to 4 Kg granules per 1000 m^2.
The following parameters were monitored at one timepoint during growth of the maize plants, 3 months after they were sown: • Plant stem caliber • Leaf width • Cob weight (taken from the main stems of 10 plants) • Total plant weight (10 plants) • Plant height
The statistical significance of the difference between the various treatment groups was determined using the Tukey-Kramer HSD test.

maize plants [2] = assay: Maize field trial 4, total leaf nitrogen content (Example 4); format: in vivo, maize (Zea mays); conditions: maize leaves, 3 months after sowing
Experimental: Generally, the nitrogen content of the growing plant in the field study was measured using a spectrophotometric method based on the standard method “4500-NO3_I. Cadmium Reduction Flow Injection Method” published by the Standard Methods Organization (<https://www.standardmethods.org/doi/full/10.2105/SMWW.2882.089). This method is based on the conversion of nitrates in an aqueous plant material extract to nitrites by passing the extract through a copperized cadmium column. Subsequent processing steps convert the nitrites to a magenta-colored dye having an absorbance peak at 540 nm.
This trial was sown during the Israeli growing season of 2018 using the pioneer maize silage variety number W86. The field was washed from possible nitrogen using sprinkler irrigation. The combination treatments administered to the plants which are of relevance for the present study were: • PC. Positive Control—full commercial nitrogen. The plants were treated with 30 units of nitrogen per 1000 m^2 by means of applying to this area 60 kg urea containing 46% urea. • NC. Negative Control—no nitrogen. • 1. […]
The average total leaf nitrogen content was measured at one timepoint during growth of the maize plants, 3 months after sowing.

wheat (Galil variety) = assay: Wheat field trial 5 (Example 5); format: in vivo
Experimental: Two different agricultural sites in Israel were selected for field trials in which the effects of compositions of the present invention on wheat crops were investigated. The various compositions were administered to the growing wheat (Galil variety) as described in Examples 3 and 4, hereinabove. The treatments used in this study are as follows:
B. Negative control (no nitrogen source)
A. Granules prepared according to Example 3, applied at a density of 4 kg granules per 1000 m^2.
C. Granules prepared according to Example 3, applied at a density of 2 kg granules per 1000 m^2.
F. Positive control—full commercial nitrogen. The plants were treated with 30 units of nitrogen per 1000 m^2 by means of applying to this area 60kg urea containing 46% urea.
The following parameters were measured in the wheat, in order to assess the effect of the treatment compositions on plant growth: […]

[3] = system: Tomato seedlings inoculated with bacterial and fungal cocktails; assay: Inoculation of tomato seedlings; format: in vivo; conditions: 5 days following treatment; concentration 3; FIG. 31
Experimental: Tomato seedlings were inoculated with 10 cc of each test mixtures containing Rhizobium species and various combinations of activating phytochemicals. (including the bacterial and fungal cocktails described below) […].
The health of each plant was assessed 5 days following treatment, using a semi-quantitative inoculation index (0=healthy, 5=dead).
The composition and concentration of the various test mixtures, as well as the number of different activating agents used in combination are summarized in the following two tables (all concentrations are given as % v/v): […]

NO production = assay: Inhibition of NO production in activated RAW 264.7 macrophages (Griess assay); format: cell-based; conditions: Mus musculus, RAW264.7, 24 h, RAW 264.7 macrophages activated with LPS and IFN-γ
Experimental: RAW 264.7 macrophages were grown in flat-bottomed flasks using a standard growth medium (DMEM supplemented with 5% FBS, antibiotics and glutamine. The cells were maintained in accordance with standard procedures well known in the art. After the cells reached confluence, they were removed from the flasks using mechanical means and then concentrated by centrifuging and resuspended in a small volume of fresh culture medium. The cell concentration was adjusted with growth medium in order that about 75,000 cells could be added to each well of a 96-well plate. A combination of 25 μg/mL LPS and 10 U/ml IFN-γ DMEM, was used for activation of the macrophages. The various test agents were added to the wells one hour prior to activation. The cells were then incubated for a further 24 hours, prior to assaying the inflammatory mediator production and cell viability. The production of NO by the macrophages subjected to the various treatments was assayed using the Griess reagent (equal volumes of 1% sulphanilamide and 0.1% […]-diamine in 5% HCl). 70 μl of supernatant from each test well was transferred to a fresh 96-well plate and mixed with 70 μL of Griess reagent and the violet color produced was measured at 540 nm.

TNF-α production = assay: Inhibition of TNF-α production in activated RAW 264.7 macrophages (ELISA); format: cell-based; conditions: Mus musculus, RAW264.7; RAW 264.7 macrophages activated with LPS and IFN-γ, 24 hours
Experimental: RAW 264.7 macrophages were grown in flat-bottomed flasks using a standard growth medium (DMEM supplemented with 5% FBS, antibiotics and glutamine. The cells were maintained in accordance with standard procedures well known in the art. After the cells reached confluence, they were removed from the flasks using mechanical means and then concentrated by centrifuging and resuspended in a small volume of fresh culture medium. The cell concentration was adjusted with growth medium in order that about 75,000 cells could be added to each well of a 96-well plate. A combination of 25 μg/mL LPS and 10 U/ml IFN-γ DMEM, was used for activation of the macrophages. The various test agents were added to the wells one hour prior to activation. The cells were then incubated for a further 24 hours, prior to assaying the inflammatory mediator production and cell viability. A sandwich ELISA was used to determine TNF-α concentration. The primary antibody was used at a concentration of 0.5 μg/mL in PBS. Serial dilutions of TNF-α standard from 0 to 1000 pg/mL in diluent (0.05% Tween-20, 0.1% BSA in PBS) were used as internal standard. TNF-α was detected with a biotinylated second antibody and an avidin peroxidase conjugate with TMB as detection reagent. The color development was monitored at 655 nm, taking readings after every 5 minutes. After 25 minutes, the reaction was stopped using 0.5 M sulphuric acid and the absorbance was measured at 450 nm.

RAW 264.7 macrophages = assay: Cell viability, Alamar Blue assay; format: cell-based
Experimental: RAW 264.7 macrophages were grown in flat-bottomed flasks using a standard growth medium (DMEM supplemented with 5% FBS, antibiotics and glutamine. The cells were maintained in accordance with standard procedures well known in the art. After the cells reached confluence, they were removed from the flasks using mechanical means and then concentrated by centrifuging and resuspended in a small volume of fresh culture medium. The cell concentration was adjusted with growth medium in order that about 75,000 cells could be added to each well of a 96-well plate. A combination of 25 μg/mL LPS and 10 U/ml IFN-γ DMEM, was used for activation of the macrophages. The various test agents were added to the wells one hour prior to activation. The cells were then incubated for a further 24 hours, prior to assaying the inflammatory mediator production and cell viability.
The Alamar Blue assay of viability was performed by adding 100 μl of a 10% Alamar Blue solution to each well and incubating at 37° C. for 1-2 hr. Fluorescence was measured (excitation at 545 nm and emission at 595 nm) and expressed as a percentage of the values in untreated control cells.

[4] = system: Clavibacter michiganensis sp. Michiganensis (Cmm); assay: Survival of Cmm after co-incubation in test tubes, colony count; format: cell-based; conditions: Example 12, contact time 3 days
Experimental: Various combinations of a 3% Rhizobium sp. preparation together with an emulsion containing 5 activating agents (E-91) or one of the components of said emulsion (naringin) and a culture of the plant pathogen Cmm (10^5-10^6 CFU/ml final concentration) were incubated in test tubes for up to 3 days (4 replicates per combination). At the end of the 3 day incubation period the contents of the test tubes containing all these components were plated on to growth medium and the numbers of colonies of Cmm and Rhizobium species for each test condition (CFU/ml) were measured.
The emulsion containing the 5 activating agents (Sclaerol, Naringin, Nootkatone, Stevia and CBD; referred to in the results table hereinbelow as 5% plant emulsion E-91) was prepared as described in Example 6, hereinabove.
This study was conducted in essentially the same manner as the study presented in Example 12. In the present study, however, the effect of the 5-component activating agent emulsion (5% plant emulsion E91) is compared with the following combinations of activating agents: […]

[5] = at the IC50 for inhibition of NO production
[6] = at the IC50 for inhibition of TNF-α production

## NC(N)=O [A. Positive control - full nitrogen, urea]
Maize plants [1]; 10 plants
  Total plant weight (10 plants): 11.81 kg
Maize plants [1]; cobs from the main stems of 10 plants
  Mean cob weight (10 plants): 3.96 kg
Maize plants [1]; maize
  Mean Plant stem caliber: 37.2 mm
  Mean leaf width: 10.5 cm
Maize plants [1]; mean of 10 plants
  Plant height: 2.72 m
Maize plants [2]
  AVERAGE N2 CONTENT (total leaf nitrogen): 3.16
Wheat (Galil variety); from each of 6 2 m plots
  Average wheat grain yield: 1.11 kg
Wheat (Galil variety); wheat
  Flag leaf width: 2.0 cm
  Main shoot diameter: 0.42 cm
  No. of side shoots: 1.3
Wheat (Galil variety); wheat flag leaf
  Average nitrogen content, flag leaves: 2.94

## C=C(C)[C@@H]1CCC(C)=C[C@H]1c1c(O)cc(CCCCC)cc1O [Cannabidiol (CBD; hemp oil), cannabidiol]
[3]
  Protection of tomato plants (inoculation index 0=healthy, 5=dead): highly active even when present as the sole activating agent

## C[C@@H]1O[C@@H](O[C@H]2[C@H](Oc3cc(O)c4c(c3)O[C@H](c3ccc(O)cc3)CC4=O)O[C@H](CO)[C@@H](O)[C@@H]2O)[C@H](O)[C@H](O)[C@H]1O [Naringin]
NO production
  IC50: 40 µg/mL
TNF-α production
  IC50: 90 µg/mL
RAW 264.7 macrophages; [5]
  Cell viability (% of cell survival): 90.10 ± 4.2%
RAW 264.7 macrophages; [6]
  Cell viability (% of cell survival): 91.50 ± 5.2%
[4]; mean of 4 replicates
  Cmm count, MEAN: 7.75 × 10^5 CFU/ml
[4]; replicates 1-4, listed as Cmm + 0.1% Naringin
  Cmm count, individual replicates: 6.5 × 10^5 CFU/ml and 8.3 × 10^5 CFU/ml and 7.7 × 10^5 CFU/ml and 8.6 × 10^5 CFU/ml

## C=C[C@](C)(O)CC[C@@H]1[C@@]2(C)CCCC(C)(C)[C@@H]2CC[C@@]1(C)O [Sclareol]
NO production
  IC50: 40 µg/mL
TNF-α production
  IC50: 80 µg/mL
RAW 264.7 macrophages; [5]
  Cell viability (% of cell survival): 96.20 ± 2.1%
RAW 264.7 macrophages; [6]
  Cell viability (% of cell survival): 95.30 ± 2.2%

## C=C1C[C@@]23CC[C@H]4[C@@](C)(CCC[C@@]4(C)C(=O)O)[C@@H]2CC[C@]1(O)C3 [Steviol]
TNF-α production
  IC50: 80 µg/mL
